{"source": "paper PMC13397332", "about": "(Biochimica et biophysica acta. Proteins and proteomics, 2025)", "target": "T1, OrnR (STM OrnR, ornithine racemase) (Salmonella enterica, UniProt Q8ZNC6)", "T1 sequence (Q8ZNC6 1-367)": "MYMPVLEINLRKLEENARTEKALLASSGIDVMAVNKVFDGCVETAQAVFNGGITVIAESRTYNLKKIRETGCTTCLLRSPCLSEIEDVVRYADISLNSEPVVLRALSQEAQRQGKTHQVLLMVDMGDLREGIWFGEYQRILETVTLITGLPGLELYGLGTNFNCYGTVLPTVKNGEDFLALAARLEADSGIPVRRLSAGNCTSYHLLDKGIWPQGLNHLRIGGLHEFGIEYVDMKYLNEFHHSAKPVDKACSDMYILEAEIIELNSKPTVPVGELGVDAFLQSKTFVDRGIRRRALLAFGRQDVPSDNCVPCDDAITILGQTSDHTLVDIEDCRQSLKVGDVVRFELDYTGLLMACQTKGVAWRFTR", "settings": "read-out: S0.5; D to L direction, pH 9.2, 37 °C, 0.8 mM PLP; sigmoid, Hill fit", "data": [{"smiles": "NCCC[C@@H](N)C(=O)O", "note": "[D-ornithine]", "values": [{"measurement": "Km", "value": "12.8 ± 2.7", "unit": "mM"}]}]}
